Source: ChEMBL document CHEMBL4017441, “Mitigating the inhibition of human bile salt export pump by drugs: opportunities provided by physicochemical property modulation, in silico modeling, and structural modification” (Drug Metab Dispos, 2012)
*1 amine or outer side, *2 acyl side, *3 side chain or, on linkers, in order; H or OH if unused. Where a SMILES comes first, the peptide text is derived from it. Bridges are numbered along the chain shown (N, C = ends). [ ]: non-standard residue; d: D form. The star is where a group is joined. ξ: configuration not given here. X2 = N=C1NC(O)C[C@H]([C@H](N[*:1])C(=O)[*:2])N1; ΔAla(Z-3-ureido) = NC(=O)N/C=C(\N)C(=O)O; X1 = N=C1NCCC(C(N[*:1])C(=O)[*:2])N1; ξβ3hOrn = NCCCC(N)CC(=O)*; Dap = NC[CH](N)C(=O)O

Molecular target: Bile salt export pump (Homo sapiens, UniProt O95342)
Type: ADME

Compound	IC50
Cc1ccc(OC(C)(C)[C@H]2OC[C@@H](C/C=C\CCC(=O)O)[C@@H](c3cccnc3)O2)c(C#N)c1	< 10 µM
COc1ccc(-n2[nH]c(=O)c3[nH]c4cc(Cl)ccc4c(=O)c3c2=O)c(C)c1	490 µM
N=C1NCCC(C2NC(=O)/C(=C/NC(N)=O)NC(=O)C(CNC(=O)CC(N)CCCN)NC(=O)C(CO)NC(=O)C(N)CNC2=O)N1 (stereo not drawn) (H-[Dap]S[Dap](ξβ3hOrn)[ΔAla(Z-3-ureido)][X1]; lactam 1-C; configuration not given here)	> 1000 µM
CN1CCc2cccc3c2[C@H]1Cc1ccc(O)c(O)c1-3 (stereo in doubt; form 1) [APOMORPHINE]	211 µM
CN1CCc2cccc3c2[C@H]1Cc1ccc(O)c(O)c1-3 (stereo in doubt; form 2) [APOMORPHINE]	391 µM
N=C1NC(O)C[C@H]([C@@H]2NC(=O)/C(=C/NC(N)=O)NC(=O)[C@H](CO)NC(=O)[C@H](CO)NC(=O)[C@@H](NC(=O)CC(N)CCCN)CNC2=O)N1 (stereo partly drawn) (ξβ3hOrn-[Dap]SS[ΔAla(Z-3-ureido)][X2]; lactam 1-C)	> 1000 µM
N[C@H]1C[C@@H]1c1ccccc1 [(+)-TRANYLCYPROMINE]	103 µM
COC(=O)C1=C(C)NC(C)=C(C(=O)OC(C)C)[C@@H]1c1cccc2nonc12 [(R)-ISRADIPINE]	< 10 µM
C[C@@](O)(CS(=O)(=O)c1ccc(F)cc1)C(=O)Nc1ccc(C#N)c(C(F)(F)F)c1 [(S)-BICALUTAMIDE]	< 10 µM
CCC(=N\O)/C(C)=C/c1ccc(F)cc1 [A-079]	26.8 µM
CCN(CC)CCNC(=O)c1ccc(NC(C)=O)cc1 [ACECAINIDE]	> 1000 µM
CC(=O)c1ccc2c(c1)N(CCCN(C)C)c1ccccc1S2 [ACEPROMAZINE]	112 µM
CC(=O)Nc1ccccc1 [ACETANILIDE]	> 1000 µM
CC(=O)Nc1cc([As](=O)(O)O)ccc1O [ACETARSONE]	> 1000 µM
CC(=O)OCC[N+](C)(C)C [ACETYLCHOLINE]	> 1000 µM
CC(=O)Nc1ccc(CC(=O)O)cc1 [ACTARIT]	> 1000 µM
Nc1ncnc2nc[nH]c12 [ADENINE]	> 1000 µM
CCN(CC)CCOC(=O)C(c1ccccc1)c1ccccc1 [ADIPHENINE]	158 µM
NC(=O)c1ccc([N+](=O)[O-])cc1Cl [AKLOMIDE]	> 1000 µM
CCC[S+]([O-])CCCN(CC)CC(O)COc1ccc(C#N)cc1 (stereo unspecified) [ALMOKALANT]	55.7 µM
CN(C)c1nc(N(C)C)nc(N(C)C)n1 [ALTRETAMINE]	> 1000 µM
N=C(N)NC(=O)c1nc(Cl)c(N)nc1N [AMILORIDE]	> 1000 µM
CCC1(c2ccc(N)cc2)CCC(=O)NC1=O (stereo unspecified) [AMINOGLUTETHIMIDE]	> 1000 µM
Nc1ccc(C(=O)NCC(=O)O)cc1 [AMINOHIPPURIC ACID]	> 1000 µM

Compound	IC50
CCOC(=O)C1=C(COCCN)NC(C)=C(C(=O)OC)C1c1ccccc1Cl (stereo unspecified) [AMLODIPINE]	16 µM
CCN(CC)Cc1cc(Nc2ccnc3cc(Cl)ccc23)ccc1O [AMODIAQUINE]	77.8 µM
Clc1ccc2c(c1)C(N1CCNCC1)=Nc1ccccc1O2 [AMOXAPINE]	230 µM
CCCc1ncc(C[n+]2ccccc2C)c(N)n1 [AMPROLIUM ION]	> 1000 µM
c1ccc(CN(CC2=NCCN2)c2ccccc2)cc1 [ANTAZOLINE]	> 1000 µM
Cc1cc(=O)n(-c2ccccc2)n1C [ANTIPYRINE]	> 1000 µM
COC(=O)C1=CCCN(C)C1 [ARECOLINE]	> 1000 µM
C[C@H]1C[C@H]2[C@@H]3CCC4=CC(=O)C=C[C@]4(C)[C@@]3(Cl)[C@@H](O)C[C@]2(C)[C@@]1(O)C(=O)CO [BECLOMETHASONE]	23.7 µM
NS(=O)(=O)c1cc2c(cc1C(F)(F)F)NC(Cc1ccccc1)NS2(=O)=O (stereo unspecified) [BENDROFLUMETHIAZIDE]	69.6 µM
CC(C(=O)O)c1ccc2oc(-c3ccc(Cl)cc3)nc2c1 (stereo unspecified) [BENOXAPROFEN]	104 µM
CCCCOc1cc(C(=O)OCCN(CC)CC)ccc1N [BENOXINATE]	309 µM
NC(CO)C(=O)NNCc1ccc(O)c(O)c1O (stereo unspecified) [BENSERAZIDE]	117 µM
O=C(O)c1ccc(NC(=O)[C@H](Cc2ccc(O)cc2)NC(=O)c2ccccc2)cc1 [BENTIROMIDE]	235 µM
CCOC(=O)c1ccc(N)cc1 [BENZOCAINE]	> 1000 µM
CCCCNc1ccc(C(=O)OCCOCCOCCOCCOCCOCCOCCOCCOCCOC)cc1 [BENZONATATE]	< 10 µM
O=C(Nc1ccc(C(=O)O)c(O)c1)c1ccccc1 [BENZOYLPAS]	> 1000 µM
NS(=O)(=O)c1cc2c(cc1Cl)N=C(CSCc1ccccc1)NS2(=O)=O [BENZTHIAZIDE]	57.4 µM
CC(C)COCC(CN(Cc1ccccc1)c1ccccc1)N1CCCC1 (stereo unspecified) [BEPRIDIL]	< 16.5 µM
CC1=C(/C=C/C(C)=C/C=C/C(C)=C/C=C/C=C(C)/C=C/C=C(C)/C=C/C2=C(C)CCCC2(C)C)C(C)(C)CCC1 [BETA CAROTENE]	< 10 µM
C[N+](C)(C)CC(=O)O [BETAINE]	> 1000 µM
CC(C)NCC(O)COc1ccc(CCOCC2CC2)cc1 (stereo unspecified) [BETAXOLOL]	> 1000 µM
CC(C[N+](C)(C)C)OC(N)=O (stereo unspecified) [BETHANECHOL]	> 1000 µM
CC(C)(Oc1ccc(CCNC(=O)c2ccc(Cl)cc2)cc1)C(=O)O [BEZAFIBRATE]	181 µM
CC(=O)Oc1ccc(C(c2ccc(OC(C)=O)cc2)c2ccccn2)cc1 [BISACODYL]	56.4 µM

Compound	IC50
COc1ccccc1Oc1c(NS(=O)(=O)c2ccc(C(C)(C)C)cc2)nc(-c2ncccn2)nc1OCCO [BOSENTAN]	< 25.3 µM
CC[N+](C)(C)Cc1ccccc1Br [BRETYLIUM]	> 1000 µM
CN(Cc1cc(Br)cc(Br)c1N)C1CCCCC1 [BROMHEXINE]	20.3 µM
CCCCNc1cc(C(=O)O)cc(S(N)(=O)=O)c1Oc1ccccc1 [BUMETANIDE]	526 µM
CC(NC(C)(C)C)C(=O)c1cccc(Cl)c1 (stereo unspecified) [BUPROPION]	> 1000 µM
O=C1CC2(CCCC2)CC(=O)N1CCCCN1CCN(c2ncccn2)CC1 [BUSPIRONE]	59.6 µM
CS(=O)(=O)OCCCCOS(C)(=O)=O [BUSULFAN]	> 1000 µM
CCCCN(CCCC)CCCOC(=O)c1ccc(N)cc1 [BUTACAINE]	488 µM
CCCCOC(=O)c1ccc(N)cc1 [BUTAMBEN]	181 µM
CSCCNc1nc(SCCC(F)(F)F)nc2c1ncn2[C@@H]1O[C@H](COP(=O)(O)OP(=O)(O)C(Cl)(Cl)P(=O)(O)O)[C@@H](O)[C@H]1O [CANGRELOR]	> 1000 µM
COc1cc(C(=O)NCCCCCC(=O)O)cc(OC)c1OC [CAPOBENIC ACID]	> 1000 µM
COc1cc(CNC(=O)CCCC/C=C/C(C)C)ccc1O [CAPSAICIN]	< 10 µM
COC(=O)N/N=C/c1c[n+]([O-])c2ccccc2[n+]1[O-] [CARBADOX]	> 940 µM
C[N+](C)(C)CCOC(N)=O [CARBAMOYLCHOLINE]	> 1000 µM
C[C@@](Cc1ccc(O)c(O)c1)(NN)C(=O)O [CARBIDOPA ANHYDROUS]	> 1000 µM
CCOC(=O)n1ccn(C)c1=S [CARBIMAZOLE]	> 1000 µM
CN(C)CCOC(c1ccc(Cl)cc1)c1ccccn1 (stereo unspecified) [CARBINOXAMINE]	> 1000 µM
O=NN(CCCl)C(=O)NCCCl [CARMUSTINE]	97.2 µM
C[N+](C)(C)CC(O)CC(=O)[O-] (stereo unspecified) [CARNITINE]	> 1000 µM
CC(C)(C)NCC(O)COc1cccc2c1CCC(=O)N2 (stereo unspecified) [CARTEOLOL]	> 1000 µM
C=CC1=C(C(=O)O)N2C(=O)[C@@H](NC(=O)/C(=N\OCC(=O)O)c3csc(N)n3)[C@H]2SC1 [CEFIXIME]	> 1000 µM
CCN(CC)CCOC(=O)c1ccc(N)cc1Cl [CHLOROPROCAINE]	> 1000 µM
Cc1cc(O)cc(C)c1Cl [CHLOROXYLENOL]	130 µM
CN(C)CCCN1c2ccccc2Sc2ccc(Cl)cc21 [CHLORPROMAZINE]	91 µM

Compound	IC50
CN(C)CC/C=C1/c2ccccc2Sc2ccc(Cl)cc21 [CHLORPROTHIXENE]	27.5 µM
O=C(O)c1cc(-c2ccccc2)nc2ccccc12 [CINCHOPHEN]	> 814 µM
CCCC(=O)OCOC(=O)C1=C(C)NC(C)=C(C(=O)OC)C1c1cccc(Cl)c1Cl (stereo unspecified) [CLEVIDIPINE]	36.4 µM
CCN(CC)CCOc1ccc(C(=C(Cl)c2ccccc2)c2ccccc2)cc1 [CLOMIPHENE]	< 10 µM
Cc1onc(-c2ccccc2Cl)c1C(=O)N[C@@H]1C(=O)N2[C@@H]1SC(C)(C)[C@@H]2C(=O)O [CLOXACILLIN]	41.6 µM
Oc1ccc(Cl)c2cccnc12 [CLOXYQUIN]	357 µM
CN1CCN(C2=Nc3cc(Cl)ccc3Nc3ccccc32)CC1 [CLOZAPINE]	75.1 µM
C[C@]12CCC(=O)C=C1CC[C@@H]1[C@@H]2C(=O)C[C@@]2(C)[C@H]1CC[C@]2(O)C(=O)CO [CORTISONE]	108 µM
O=c1ccc2ccccc2o1 [COUMARIN]	> 1000 µM
O=C(NO)C1(CS(=O)(=O)c2ccc(Oc3ccc(Cl)cc3)cc2)CCOCC1 [CTS-1027]	23.4 µM
CC1CC(OC(=O)C(O)c2ccccc2)CC(C)(C)C1 (stereo unspecified) [CYCLANDELATE]	15 µM
CN(C)CCC=C1c2ccccc2C=Cc2ccccc21 [CYCLOBENZAPRINE]	107 µM
NCCS [CYSTEAMINE]	331 µM
CN(C)/N=N/c1[nH]cnc1C(N)=O [DACARBAZINE]	> 1000 µM
C#C[C@]1(O)CC[C@H]2[C@@H]3CCC4=Cc5oncc5C[C@]4(C)[C@H]3CC[C@@]21C [DANAZOL]	< 10 µM
O=C1CN(/N=C/c2ccc(-c3ccc([N+](=O)[O-])cc3)o2)C(O)=N1 [DANTROLENE]	145 µM
Cc1nc(Nc2ncc(C(=O)Nc3c(C)cccc3Cl)s2)cc(N2CCN(CCO)CC2)n1 [DASATINIB]	< 10 µM
O=C(O)c1ccc(OCCn2ccnc2)cc1 [DAZOXIBEN]	> 1000 µM
N=C(N)N1CCc2ccccc2C1 [DEBRISOQUIN]	> 952 µM
COc1ccc(-c2cc(C(F)F)nn2-c2ccc(S(N)(=O)=O)cc2)cc1F [DERACOXIB]	20.2 µM
CNCCCN1c2ccccc2CCc2ccccc21 [DESIPRAMINE]	150 µM
C[C@@H]1C[C@H]2[C@@H]3CCC4=CC(=O)C=C[C@]4(C)[C@@]3(F)[C@@H](O)C[C@]2(C)[C@H]1C(=O)CO [DESOXIMETASONE]	16.4 µM
C[C@]12CC[C@H]3[C@@H](CCC4=CC(=O)CC[C@@]43C)[C@@H]1CC[C@@H]2C(=O)CO [DESOXYCORTICOSTERONE]	17.1 µM
CN1C(=O)[C@@H](NC(=O)c2cc3ccccc3[nH]2)N=C(c2ccccc2)c2ccccc21 [DEVAZEPIDE]	< 10 µM
